Measured values taken from patent publication US6900239B2, “Tumor chemopotentiation using isocoumarin derivatives” (ILWZ ILEX Products, Inc., priority 2000, dated 2005).

Columns and labels:
B16-BL6 melanoma cells = assay: Experimental tumor metastasis (lung colonies); format: in vivo, BDF1 mice; settings: for Inhibition (%): days 1~13; for Number of lung metastases (Mean ± S.D.): days 1~13, counted day 14
Source text: To determine the antitumor effect of NM-3 on metastatic tumor growth, B16-BL6 melanoma cells (2×10^4 cells per mouse) were transplanted into BDF1 mice (female, 5 weeks old) via the tail vein. NM-3 was continuously administered via the oral route for 13 days following transplantation of the tumor cells. On day 14, the lungs were excised and fixed, and the metastatic colony numbers were counted.

[1] = system: Human umbilical vein endothelial cells (HUVEC); assay: HUVEC colony formation with a constant amount of gamma radiation; format: cell-based
Description: Human umbilical vein endothelial cells (HUVEC) were exposed to a constant amount of gamma radiation in the presence or absence of various concentrations of NM-3 in the culture medium. The numbers of HUVEC colonies that formed following the different treatments were recorded and normalized to the number of colonies formed under control (no NM-3) conditions and the results are shown in FIG. 1. […] For comparison, HUVEC cells were treated with either angiostatin or endostatin, two additional anti-angiogenic proteins.

[2] = system: Lewis Lung carcinoma (LLC) tumors; assay: Radiation sensitivity of Lewis Lung carcinoma in vivo; design: species or system C57BL/6 female mice
Description: To determine whether NM-3 treatment increases the radiation sensitivity of tumors in vivo, Lewis Lung carcinoma (LLC) tumors were established in C57BL/6 female mice (Frederick Cancer Research Institute) prior to NM-3 and radiation treatment. LLC cells (1×10^6 cells) were injected in the right hind limb of the mice and tumors were allowed to grow a volume of 250-350 mm^3. Tumor volumes were determined by direct measurements with calipers calculated by the formula: V=length×width×depth/2. Mice were then divided into groups and treated with NM-3 (100 mg/kg total) or PBS for two days before beginning radiation therapy. Animals then received NM-3 (25 mg/kg/day, i.p.) or PBS approximately four hours prior to radiation treatment. Tumors were irradiated using a GE Maxitron X-ray generator operating at 150 kV, 30 mA, using a 1 mm aluminum filter at a dose rate of 188 cGy/minute. Mice were shielded with lead except for the tumor-bearing area in the hind limb. Treatments and tumor measurements continued for a period of 17 days (see FIG. 4). […] Whereas control tumors reached 8 initial tumor volumes (Vo) after 8 days, X-ray treated tumors required 16 days to grow to this size. […] For comparison, data are plotted with two additional anti-angiogenic drugs, antiostatin and endostatin (see FIGS. 3B and 3C).

LLC tumor = assay: LLC tumors, second experiment, complete cures; format: in vivo; settings: NM-3 25 μg/kg daily over the first four days + 20 Gy X-irradiation on days 2 and 4
Description: In a second similar experiment, X-ray treatment and X-ray treatment combined with NM-3 treatment were again compared for their relative abilities to inhibit LLC tumor growth. However, the treatment period was extended to determine whether either treatment regimen was able to initiate complete tumor cures. Animals were injected with […] initially and starting tumor volumes were approximately 500 mm^3. Tumors were irradiated on days 2 and 4 with 20 Gy X-irradiation. NM-3 was administered at 25 μg/kg daily over the first four days. The tumors of both groups increased slightly in size following initiation of treatment and then began to decrease after several days. Tumors in the X-ray only group began to increase steadily in size after the 10th day of continuous treatment. In contrast, tumors in the NM-3+X-ray group continued to decrease in size following the initial growth phase. Ultimately, 9 of 10 animals receiving NM-3+X-ray treatment experienced a complete cure while only 3 of 10 animals were cured by the X-ray treatment alone.

[3] = system: MDAMB-435 human breast tumor xenografts; assay: MDAMB-435 orthotopic model, NM-3 with 5-Fluorouracil; format: in vivo, female NCRNU nude mice; settings: NM-3 100 mg/kg/day i.p. alone
Description: In order to evaluate the antitumor activity of NM-3 in combination with 5-Fluorouracil (5-FU) vs. MDAMB-435 human breast tumor xenografts, female NCRNU nude mice were implanted with MDAMB-435 cells into the subaxillary mammary fat pad. When the tumors were between 50 and 80 mm^3, NM-3 was administered via intraperitoneal (i.p.) injection daily at 10 and 100 mg/kg; 5-FU was administered via i.p. injection on days 0 and 14, at 10 mg/kg. Mice were weighed twice weekly, and tumor measurements were taken by calipers twice weekly. Mice were euthenized at the end of the treatment period. Upon termination, the mice were weighed, sacrificed and their tumors were excised.
Initial studies were conducted with 5-FU to determine the optimal dose of this agent when administered in combination with NM-3.

[4] = system: MM1.S human multiple myeloma cells; assay: Cell viability by MTT assay; format: cell-based
Description: NM-3 was dissolved in Mg^2+ and Ca^2+ free phosphate buffered saline (PBS) by adding appropriate volume of 10 N NaOH (final pH<7.0). DEX was dissolved in absolute ethanol and diluted with PBS. Final concentration of ethanol in the culture medium was 0.5% or less. DOX was dissolved in PBS.
The human multiple myeloma cell line MM1.S was maintained in RPMI1640 medium supplemented with 10% fetal bovine serum, 100 units/ml penicillin, and 100 μg/ml streptomycin at 37° C. in an atmosphere of 5% CO2 in air. Cells (3×10^4 cells/well) were seeded in 96 well-plates and incubated with increasing concentrations of DEX or DOX in the presence or absence of NM-3. NM-3 was added at concentrations of 0, 50, 100 and 200 μg/ml 2 hours before the addition of DOX or DEX. After 24 hours of DOX or DEX exposure, 10 μl of MTT reagent (Roche Molecular Biochemicals, final concentration 0.5 mg/ml) was added to each well and allowed to incubate for 4 hours. After the incubation, 100 μl of solubilization solution (10% sodium dodecyl sulfate in 0.01M HCl) was added to each well and allowed to incubate overnight. Optical density at 565 nm was determined using a spectrophotometer (Molecular Devices Corp.).

[5] = in vivo; cited from earlier work

In the case of `COc1cc(O)c2c(=O)oc(C(C)C(=O)O)cc2c1` (stereo not drawn) [NM-3, 2-(8-hydroxy-6-methoxy-1-oxo-1H-2-benzopyran-3-yl) propionic acid], the “Inhibition (%)” value (B16-BL6 melanoma cells; 0.08 mg/kg p.o.) is reported as −5.3%, the “Number of lung metastases (Mean ± S.D.)” value (B16-BL6 melanoma cells; 0.08 mg/kg p.o.) is reported as 88.7 ± 16.1 and the “Inhibition (%)” value (B16-BL6 melanoma cells; 0.31 mg/kg p.o.) is reported as 24.0%. The “Number of lung metastases (Mean ± S.D.)” value (B16-BL6 melanoma cells; 0.31 mg/kg p.o.) was 64.0 ± 23.8, the “Inhibition (%)” value (B16-BL6 melanoma cells; 1.25 mg/kg p.o.) was 13.8% and the “Number of lung metastases (Mean ± S.D.)” value (B16-BL6 melanoma cells; 1.25 mg/kg p.o.) was 72.6 ± 20.6. The “Inhibition (%)” value (B16-BL6 melanoma cells; 5.0 mg/kg p.o.) was 18.8%, the “Number of lung metastases (Mean ± S.D.)” value (B16-BL6 melanoma cells; 5.0 mg/kg p.o.) was 68.4 ± 16.9 and the “Number of pleural metastatic foci versus control” value (B16-BL6 melanoma cells; 0.08 to 5 mg/kg p.o.) was “reduction in the number of pleural metastatic foci”. For the same compound, the “ED50, decrease of HUVEC colony formation” value [1] was “approximately 1 μg/ml”, the Further tumor growth ([2]; NM-3 25 mg/kg/day i.p. added to radiotherapy, 17 days) was “markedly reduced” and the Tumor growth ([2]; NM-3 alone) was “did not inhibit tumor growth at all”. The “Radiation sensitization of tumors” value ([2]; combined with X-ray treatment) was “dramatically enhances the sensitivity”, the “Animals with complete cure” value (LLC tumor) was 9 of 10 and the “% Tumor Growth Inhibition” value [3] was 24.1%. The “Potentiation of DEX-induced cell death” value ([4]; NM-3 50-200 μg/ml added 2 hours before DEX, 24 hours) was “potentiated DEX-induced cell death”, the Cell viability ([4]; NM-3 alone, 50-200 μg/ml) was “only slightly decreased the cell viability” and the Stability [5] was “highly stable”.
